The text below walks through data of ChEMBL document CHEMBL5241053, “Discovery of novel steroidal-chalcone hybrids with potent and selective activity against triple-negative breast cancer” (Bioorg Med Chem, 2020).

Active and inactive are the calls of the source. The rule behind the calls is not given here. A value given as a limit tells only on which side of the number the result lay.

Test [1] is described as follows: Selectivity index, ratio of IC50 for antiproliferative activity against human A549 cells to IC50 for antiproliferative activity against human MDA-MB-231 cells. In kind it is functional.
In the next test the test system is HT-29. Put plainly: Antiproliferative activity against human HT-29 cells assessed as cell growth inhibition incubated for 4 hrs by MTT assay. In kind it is functional, cell-based. The conditions noted are these: HT-29, 4 h. On the technique in general: Tetrazolium dyes change colour on reduction, which living cells bring about.
Test [2] is described as follows: Selectivity index, ratio of IC50 for antiproliferative activity against human HT-29 cells to IC50 for antiproliferative activity against human MDA-MB-231 cells. It counts as functional.
The test system of the next test is A549. Put plainly: Antiproliferative activity against human A549 cells assessed as cell growth inhibition incubated for 4 hrs by MTT assay. The settings on record: A549, 4 h. In kind it is functional, cell-based.
Test [3] has as its system MDA-MB-231. Put plainly: Antiproliferative activity against human MDA-MB-231 cells assessed as cell growth inhibition incubated for 4 hrs by MTT assay. It counts as functional, cell-based. The settings on record: MDA-MB-231, 4 h.
The test system of test [4] is MDA-MB-231. Put plainly: Inhibition of colony formation in human MDA-MB-231 cells upto 5 uM for 9 days by crystal violet staining based assay. The settings on record: time 9.0 day. It counts as functional, cell-based.

`COc1ccc(/C=C/C(=O)NCCNC(=O)[C@H]2CC[C@H]3[C@@H]4CCC5=CC(=O)C=C[C@]5(C)[C@H]4CC[C@]23C)cc1`: the “Ratio IC50” value is listed as 2.6 in test [1] and greater than 3.5 in test [2]. For the same compound, the IC50 (as a rule, the concentration that gives 50% inhibition) in the test on HT-29 was greater than 40 µM; in the test on A549 it was 29.6 µM; in the test on MDA-MB-231 [3], 11.5 µM.

Turning to `CC(C)(C)OC(=O)NCCNC(=O)[C@H]1CC[C@H]2[C@@H]3CCC4=CC(=O)CC[C@]4(C)[C@H]3CC[C@]12C`, the IC50 is greater than 40 µM in the test with HT-29, greater than 40 µM with A549 and 24.8 µM in the test with MDA-MB-231 [3].

For `CC(C)(C)OC(=O)NCCNC(=O)[C@H]1CC[C@H]2[C@@H]3CCC4=CC(=O)C=C[C@]4(C)[C@H]3CC[C@]12C`, the half-inhibitory concentration (IC50) with HT-29, in the test with A549 and in the test with MDA-MB-231 [3] was greater than 40 µM throughout.

On to `C[C@]12CC[C@H]3[C@@H](CCC4=CC(=O)C=C[C@@]43C)[C@@H]1CC[C@@H]2C(=O)NCCNC(=O)/C=C/c1cccc([N+](=O)[O-])c1`, for which the “Ratio IC50” value in test [1] was 2.5; in test [2], greater than 2.9. Also, the IC50 is greater than 40 µM in the test with HT-29, 34.2 µM in the test on A549 and 13.7 µM with MDA-MB-231 [3].

For the compound `O=C(/C=C/c1ccccc1)c1ccccc1` [CHALCONE], the figures for the half-inhibitory concentration (IC50) in the test on HT-29, in the test on A549 and with MDA-MB-231 [3] were 45.9 µM, 69.2 µM and 42.8 µM, respectively.

For `COc1ccc(/C=C/C(=O)NCCNC(=O)[C@H]2CC[C@H]3[C@@H]4CCC5=CC(=O)C=C[C@]5(C)[C@H]4CC[C@]23C)cc1OC`, the “Ratio IC50” value in test [1] and in test [2] was greater than 7 throughout. Moreover, the IC50 is greater than 40 µM in the test on HT-29, greater than 40 µM with A549 and 5.75 µM in the test with MDA-MB-231 [3].

Consider `C[C@]12CC[C@H]3[C@@H](CCC4=CC(=O)C=C[C@@]43C)[C@@H]1CC[C@@H]2C(=O)NCCNC(=O)/C=C/c1ccc(C(F)(F)F)cc1`, for which the entries for the “Ratio IC50” value in test [1] and in test [2] were 3.2 and greater than 3.2, respectively. Besides, the figures for the IC50 with HT-29, in the test with A549 and with MDA-MB-231 [3] were greater than 40 µM, 38.1 µM and 12.5 µM, respectively.

Turning to `C[C@]12CC[C@H]3[C@@H](CCC4=CC(=O)CC[C@@]43C)[C@@H]1CC[C@@H]2C(=O)NCCNC(=O)/C=C/c1ccc([N+](=O)[O-])cc1`, the “Ratio IC50” value is on record as greater than 3.3 in test [1] and 2.3 in test [2]. In addition, the values for the 50% inhibitory concentration (IC50) with HT-29, with A549 and in the test with MDA-MB-231 [3] were 27.8 µM, greater than 40 µM and 12 µM, respectively.

On to `C[C@]12CC[C@H]3[C@@H](CCC4=CC(=O)CC[C@@]43C)[C@@H]1CC[C@@H]2C(=O)NCCNC(=O)/C=C/c1ccccc1`, for which the figures for the “Ratio IC50” value in test [1] and in test [2] were 2.7 and 1.1, respectively. Also, the half-maximal inhibitory concentration (IC50) in the test with HT-29 was 9.49 µM; in the test with A549, 27.3 µM; with MDA-MB-231 [3], 10.3 µM.

On to `C[C@]12CC[C@H]3[C@@H](CCC4=CC(=O)CC[C@@]43C)[C@@H]1CC[C@@H]2C(=O)NCCNC(=O)/C=C/c1ccc(Cl)cc1`, for which the “Ratio IC50” value is 4.3 in test [1] and 1.8 in test [2]. In addition, the half-maximal inhibitory concentration (IC50) in the test on HT-29 came out at 15 µM; in the test on A549 it was 35.7 µM; with MDA-MB-231 [3] it was 8.19 µM.

Consider `COc1cc(/C=C/C(=O)NCCNC(=O)[C@H]2CC[C@H]3[C@@H]4CCC5=CC(=O)CC[C@]5(C)[C@H]4CC[C@]23C)cc(OC)c1OC`, for which the IC50 in the test with HT-29, in the test with A549 and in the test on MDA-MB-231 [3] was greater than 40 µM in each case.

Take `C[C@]12CC[C@H]3[C@@H](CCC4=CC(=O)C=C[C@@]43C)[C@@H]1CC[C@@H]2C(=O)NCCNC(=O)/C=C/c1ccc(Cl)cc1`: the half-maximal inhibitory concentration (IC50) in the test on HT-29 is greater than 40 µM; in the test on A549 it was 38.7 µM; with MDA-MB-231 [3] it was greater than 40 µM.

With `C[C@]12CC[C@H]3[C@@H](CCC4=CC(=O)C=C[C@@]43C)[C@@H]1CC[C@@H]2C(=O)NCCNC(=O)/C=C/c1ccc([N+](=O)[O-])cc1`, the “Ratio IC50” value in test [1] and in test [2] was greater than 1.8 throughout. In addition, the IC50 with HT-29 is greater than 40 µM; in the test with A549, greater than 40 µM; in the test on MDA-MB-231 [3], 22.6 µM.

As for `C[C@]12CC[C@H]3[C@@H](CCC4=CC(=O)C=C[C@@]43C)[C@@H]1CC[C@@H]2C(=O)NCCNC(=O)/C=C/c1ccccc1`, the “Ratio IC50” value in test [1] amounted to 4.6; in test [2], 2.2. Besides, the IC50 in the test with HT-29 stood at 12.7 µM; in the test on A549, 26.9 µM; in the test with MDA-MB-231 [3], 5.82 µM.

Turning to `O=c1[nH]cc(F)c(=O)[nH]1` [FLUOROURACIL], the figures for the “Ratio IC50” value in test [1] and in test [2] were 1.5 and 1.3, respectively. Besides, the IC50 in the test on HT-29 came out at 12.7 µM; in the test with A549, 14.5 µM; in the test on MDA-MB-231 [3], 9.89 µM.

`COc1ccccc1/C=C/C(=O)NCCNC(=O)[C@H]1CC[C@H]2[C@@H]3CCC4=CC(=O)C=C[C@]4(C)[C@H]3CC[C@]12C`: the “Ratio IC50” value in test [1] is 57.6; in test [2], 32.3. The concentration for half-maximal inhibition (IC50) in the test on HT-29 amounted to 16.8 µM; with A549 it was 29.9 µM; in the test on MDA-MB-231 [3], 0.52 µM. In addition, the inhibition entry with MDA-MB-231 [4] is “Active”.

Consider `C[C@]12CC[C@H]3[C@@H](CCC4=CC(=O)CC[C@@]43C)[C@@H]1CC[C@@H]2C(=O)NCCNC(=O)/C=C/c1ccc(C(F)(F)F)cc1`, for which the figures for the “Ratio IC50” value in test [1] and in test [2] were greater than 4.3 and 3.7, respectively. The IC50 in the test on HT-29 is 34.2 µM; in the test on A549 it was greater than 40 µM; in the test with MDA-MB-231 [3], 9.21 µM.

For the compound `COc1ccc(/C=C/C(=O)NCCNC(=O)[C@H]2CC[C@H]3[C@@H]4CCC5=CC(=O)CC[C@]5(C)[C@H]4CC[C@]23C)cc1OC`, the figures for the “Ratio IC50” value in test [1] and in test [2] were 2.3 and 1, respectively. Also, the results for the half-inhibitory concentration (IC50) in the test with HT-29, in the test on A549 and in the test with MDA-MB-231 [3] were 14.7 µM, 35.1 µM and 15.2 µM, respectively.

As for `C[C@]12CC[C@H]3[C@@H](CCC4=CC(=O)CC[C@@]43C)[C@@H]1CC[C@@H]2C(=O)NCCNC(=O)/C=C/c1cccc([N+](=O)[O-])c1`, the “Ratio IC50” value was 1.6 in test [1] and 2.3 in test [2]. The IC50 in the test on HT-29 stood at 25.4 µM; with A549 it was 17.7 µM; with MDA-MB-231 [3] it was 11.2 µM.

Regarding `COc1ccc(/C=C/C(=O)NCCNC(=O)[C@H]2CC[C@H]3[C@@H]4CCC5=CC(=O)CC[C@]5(C)[C@H]4CC[C@]23C)cc1`, the figures for the “Ratio IC50” value in test [1] and in test [2] were greater than 1.8 and 1.6, respectively. Further, the results for the IC50 in the test with HT-29, with A549 and in the test on MDA-MB-231 [3] were 35 µM, greater than 40 µM and 22.2 µM, respectively.

Consider `COc1cc(/C=C/C(=O)NCCNC(=O)[C@H]2CC[C@H]3[C@@H]4CCC5=CC(=O)C=C[C@]5(C)[C@H]4CC[C@]23C)cc(OC)c1OC`, for which the IC50 with HT-29 was greater than 40 µM; in the test on A549 it was 35.9 µM; in the test with MDA-MB-231 [3], greater than 40 µM.
